Laboratory results taken from US9057094B1, “Nanoparticle-mediated methods for antimicrobial susceptibility testing of bacteria” (UNIVERSITY OF CENTRAL FLORIDA RESEARCH FOUNDATION, INC., priority 2007, dated 2015).

Tests used:
[1] = test system: E. coli; test: Dextran-coated gold nanoparticle (Au NP)/Con A surface plasmon band shift assay for MIC; type: cell-based, Escherichia coli; conditions: E. coli 10^6 CFU, 2 hours at 37° C. in MH broth; Au NPs + Con A 30 minutes at 25° C.
Experimental: (§1) In order to investigate if the dextran-coated iron oxide nanoparticles can monitor the starch utilization due to bacterial metabolic activity, different populations of Escherichia coli (strain 8739 from ATCC) were grown in starch-containing MH broth (DIFCOTM, BD) for 2 hours at 37° C. For determination of the minimum inhibitory concentration, Escherichia coli (10^6 CFU), Serratia marcescens (ATCC, 106 CFU) and Shigella sonnie (strain 9290 from ATCC, 106CFU) were grown in a starch-containing MH broth (DIFCOTM, BD), for 2 hours at 37° C. in the presence or absence of ampicillin. […]
Accurate determination of the minimum inhibitory concentration (MIC) can prevent adverse side effects, such as renal toxicity. […] Then, aliquots of these samples were incubated with Au NPs for 30 minutes at 25° C., in the presence of Con A. Based on the shifts of the surface plasmon band, the MIC was determined to be 8 μg, as the corresponding surface plasmon band shift was statistically different than the control, containing bacteria growing in the absence of antibiotic (FIG. 8A). […] Bacterial growth was assessed based on the broth's turbidity, whereas absence of turbidity was an indicator of successful antimicrobial susceptibility. […] This concentration was identical to the Au NP-determined MIC, though the Au NP-based method yielded the same results much faster.

[2] = test system: E. coli; test: Con A-conjugated nanosensors (non-competition assay), blood cultures; type: cell-based, Escherichia coli; conditions: within 5 minutes after addition of bacterial sample
Experimental: as §1, with “ampicillin. For determination of MIC in blood, bacterial stocks (10^6 CFU) were grown in the presence or absence of ampicillin in a 5%-blood-supplemented starch-containing MH broth, for 2 hours at 37° C.” for “ampicillin.”
(§2) In our first set of experiments with the aminated silica-coated nanoparticles, we determined whether these nanoparticles clustered non-specifically in the presence of Con A in solution. […]
(§3) Then, we examined if MIC determination can be achieved using these Con A-conjugated nanosensors, in blood cultures of E. coli and S. marcescens. […] Likewise, within 5 minutes the Con A-conjugated nanosensors assessed that S. marcescens was resistant to ampicillin, further corroborating the findings that the non-competition assay format provides faster results than the competition-based assay of the dextran-coated nanosensors (FIG. 20B).

[3] = test system: E. coli; test: Turbidity method (24-hour incubation in MH broth) for MIC; type: cell-based, Escherichia coli; conditions: serial dilutions in MH broth, 24-hour incubation at 37° C.
Experimental: Accurate determination of the minimum inhibitory concentration (MIC) can prevent adverse side effects, such as renal toxicity. Considering that the contemporary MIC determination depends on a day-long process, we examined if Au NPs can yield results faster without sacrificing reliability. Initially, E. coli (10^6 CFU) were incubated for 2 hours at 37° C. in MH broth, in the presence of different concentrations of ampicillin. Then, aliquots of these samples were incubated with Au NPs for 30 minutes at 25° C., in the presence of Con A. Based on the shifts of the surface plasmon band, the MIC was determined to be 8 μg, as the corresponding surface plasmon band shift was statistically different than the control, containing bacteria growing in the absence of antibiotic (FIG. 8A). Correlation with standard methods was achieved by inoculating serial dilutions of ampicillin in MH broth with E. coli, followed by a 24-hour long incubation at 37° C. Bacterial growth was assessed based on the broth's turbidity, whereas absence of turbidity was an indicator of successful antimicrobial susceptibility. […] This concentration was identical to the Au NP-determined MIC, though the Au NP-based method yielded the same results much faster.

[4] = test system: S. marcescens; test: Con A-conjugated nanosensors (non-competition assay), blood cultures; type: cell-based, Serratia marcescens; conditions: within 5 minutes after addition of bacterial sample
Experimental: as §1, with “ampicillin. For determination of MIC in blood, bacterial stocks (10^6 CFU) were grown in the presence or absence of ampicillin in a 5%-blood-supplemented starch-containing MH broth, for 2 hours at 37° C.” for “ampicillin.”
as §2, §3

[5] = test system: E. coli; test: High-throughput Au-NP/Con A assay on 96-well plate; type: cell-based, Escherichia coli; conditions: E. coli 10^6 CFU, Con A 30-min at 25° C.
Description: Finally, the potential of our Au-NP-based assay for the determination of antimicrobial susceptibility in high-throughput format was investigated. In these studies, samples of heat-inactivated E. coli (10^6 CFU) and E. coli (10^6 CFU) grown in the presence or absence of ampicillin were screened with the Au-NP on a 96-well plate using a microtiter plate reader.

[6] = test system: Shigella sonnei; test: Dextran-coated IO NP/Con A magnetic relaxation (ΔT2) assay for MIC; type: cell-based; conditions: Shigella sonnei 10^6 CFUs, 2 hours at 37° C. in MH broth; Con A 30-minute incubation at room temperature
Experimental: as §1, with “ampicillin. For determination of MIC in blood, bacterial stocks (10^6 CFU) were grown in the presence or absence of ampicillin in a 5%-blood-supplemented starch-containing MH broth, for 2 hours at 37° C.” for “ampicillin.”
(§4) First, we wanted to determine if magnetic IO NPs coated with dextran could be used to determine and quantify the levels of a polysaccharide (starch) in bacterial culture media. […] The samples were examined in a Bruker 0.47 T (20 MHz) magnetic relaxometer (The MiniSpec, Bruker), and the individual sample's changes in spin-spin relaxation times (ΔT2) were determined based on the formula: |ΔT2incubation time−ΔT2prior ConA|. […]
(§5) We then determined the antibiotic susceptibility or resistance of other bacteria utilizing the IO NPs. […]

[7] = test system: Serratia marcescens; test: Dextran-coated IO NP/Con A magnetic relaxation (ΔT2) assay of antibiotic resistance; type: cell-based; conditions: Serratia marcescens 10^6 CFUs, 2 hours at 37° C. in MH broth; Con A 30-minute incubation at room temperature
Experimental: as §1, with “ampicillin. For determination of MIC in blood, bacterial stocks (10^6 CFU) were grown in the presence or absence of ampicillin in a 5%-blood-supplemented starch-containing MH broth, for 2 hours at 37° C.” for “ampicillin.”
as §4, §5

[8] = test system: E. coli; test: Dextran-coated polysaccharide nanosensors, antimicrobial susceptibility in blood-supplemented MH broth; type: cell-based, Escherichia coli; conditions: 2 hours at 37° C., 45 minutes following Con A addition at room temperature
Experimental: as §1, with “ampicillin. For determination of MIC in blood, bacterial stocks (10^6 CFU) were grown in the presence or absence of ampicillin in a 5%-blood-supplemented starch-containing MH broth, for 2 hours at 37° C.” for “ampicillin.”
(§6) Lastly, due to the fact that many bacteria can either cause septicemia or require growth in optically turbid media, it is important to assess bacterial susceptibility in these complex matrices. However, most current methods cannot be utilized for the detection of molecular targets and assessment of antimicrobial susceptibility in blood, due to the strong absorbance and scattering from the matrix's constituents, including platelets and red blood cells. […] After 45 minutes following Con A addition at room temperature, we determined that the E. coli's ampicillin MIC was 8 μg, without observing any nanoparticle precipitation.

[9] = test system: E. coli; test: Dextran-coated iron oxide nanoparticle (IO NP)/Con A magnetic relaxation (ΔT2) assay for MIC; type: cell-based, Escherichia coli; conditions: E. coli 10^6 CFUs, 2 hours at 37° C. in MH broth; Con A 30-minute incubation at room temperature
Experimental: as §1, §4
Then, utilizing the IO NPs, we determined ampicillin's MIC. […] Specifically, the magnetic-relaxation-determined minimum inhibitory concentration was 8 μg, as at this concentration we observed a drastic change in the values of ΔT2. […]

[10] = test system: S. marcescens; test: Dextran-coated polysaccharide nanosensors, antimicrobial susceptibility in blood-supplemented MH broth; type: cell-based, Serratia marcescens; conditions: 2 hours at 37° C., hour-long incubation at 25° C.
Experimental: as §1, with “ampicillin. For determination of MIC in blood, bacterial stocks (10^6 CFU) were grown in the presence or absence of ampicillin in a 5%-blood-supplemented starch-containing MH broth, for 2 hours at 37° C.” for “ampicillin.”
as §6

CC1(C)S[C@@H]2[C@H](NC(=O)[C@H](N)c3ccccc3)C(=O)N2[C@H]1C(=O)O [ampicillin]
MIC (minimum inhibitory concentration) based on shifts of the surface plasmon band [1]: 8 µg | Ampicillin MIC in blood cultures, Con A-conjugated nanosensors [2]: 8 µg | Lowest ampicillin concentration where the MH broth was clear (turbidity MIC) [3]: 8 µg | Drug susceptibility or resistance in blood cultures, Con A-conjugated nanosensors [4]: resistant | Categorization of sample (inhibitory or non-inhibitory) ([5]; 2 μg ampicillin): non-inhibitory | Categorization of sample (inhibitory or non-inhibitory) ([5]; 64 μg ampicillin): inhibitory | Magnetic-relaxation-determined minimum inhibitory concentration [6]: 8 µg | Antibiotic susceptibility or resistance (changes in T2) [7]: resistant | Ampicillin MIC in blood [8]: 8 µg | Magnetic-relaxation-determined minimum inhibitory concentration [9]: 8 µg | Drug susceptibility or resistance in blood [10]: drug resistance
